Data: US20250129027A1 (APOGEE PHARMACEUTICALS, INC., priority 2023, published 2025)

What was measured:
[1] = biological target: human recombinant MAGL (Homo sapiens (Human), UniProt Q99685); experiment: In vitro inhibition of MAGL activity (inhibitor screening kit, 4-nitrophenylacetate); type: biochemical; conditions: human recombinant MAGL
In short: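 Colorimetric kit assay: recombinant human MAGL hydrolyses 4-nitrophenylacetate to 4-nitrophenol, read by absorbance at 405-412 nm. Inhibition given as percentage of signal in treated versus untreated MAGL control.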

[2] = biological target: human recombinant FAAH (Homo sapiens (Human), UniProt O00519); experiment: In vitro inhibition of FAAH activity (fluorescent inhibitor screening kit, AMC arachidonoyl amide); type: biochemical; conditions: human recombinant FAAH; read-out: Inhibition on FAAH activity (IC50)
Sequence of human recombinant FAAH (O00519 whole entry): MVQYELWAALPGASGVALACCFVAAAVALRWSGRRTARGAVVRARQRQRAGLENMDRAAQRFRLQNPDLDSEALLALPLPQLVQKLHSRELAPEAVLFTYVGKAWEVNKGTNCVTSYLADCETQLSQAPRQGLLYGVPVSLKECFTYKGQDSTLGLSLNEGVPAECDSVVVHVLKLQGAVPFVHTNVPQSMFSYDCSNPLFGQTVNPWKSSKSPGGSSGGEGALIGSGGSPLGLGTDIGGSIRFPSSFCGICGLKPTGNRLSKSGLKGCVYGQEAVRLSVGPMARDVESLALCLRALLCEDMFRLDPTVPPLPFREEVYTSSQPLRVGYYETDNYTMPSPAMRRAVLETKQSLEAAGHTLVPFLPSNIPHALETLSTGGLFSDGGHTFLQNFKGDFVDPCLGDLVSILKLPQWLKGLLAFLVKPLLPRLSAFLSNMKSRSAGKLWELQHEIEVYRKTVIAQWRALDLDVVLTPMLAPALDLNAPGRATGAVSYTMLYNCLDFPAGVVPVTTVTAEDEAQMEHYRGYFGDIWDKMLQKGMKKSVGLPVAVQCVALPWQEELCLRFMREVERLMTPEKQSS
In short: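 Fluorogenic kit assay: AMC arachidonoyl amide is cleaved by human recombinant FAAH, read at 340-360/450-465 nm. Percent inhibition versus non-treated control; IC50 values derived from multiple compound concentrations where tested.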

Sequence of human recombinant MAGL (Q99685 whole entry): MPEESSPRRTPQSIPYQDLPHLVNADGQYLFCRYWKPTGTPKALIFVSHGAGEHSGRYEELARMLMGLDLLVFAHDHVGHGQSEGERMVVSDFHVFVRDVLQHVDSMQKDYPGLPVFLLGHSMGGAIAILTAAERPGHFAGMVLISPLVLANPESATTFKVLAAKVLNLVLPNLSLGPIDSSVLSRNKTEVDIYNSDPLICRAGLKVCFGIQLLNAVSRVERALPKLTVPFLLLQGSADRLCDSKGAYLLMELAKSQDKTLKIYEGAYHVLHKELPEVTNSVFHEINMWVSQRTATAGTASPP

| Compound | IC50 [1] | IC50 [2] |
| --- | --- | --- |
| CCCCCCCCNC(=O)Oc1cc(O)cc(-c2cncc(-c3nnco3)c2)c1 [Example 160, 3-(5-(1,3,4-oxadiazol-2-yl)pyridin-3-yl)-5-hydroxyphenyl octylcarbamate] | 1 to 10 µM | 0.001 to 0.01 µM |
| O=C(Oc1cccc(-c2cncc(-c3nnco3)c2)c1)N1C2CCCC1CC2 [Example 150, 3-(5-(1,3,4-oxadiazol-2-yl)pyridin-3-yl)phenyl 8-azabicyclo[3.2.1]octane-8-carboxylate] | > 10 µM | > 1 µM |
| O=C(NC1CCCCCC1)Oc1ccc(OC(F)(F)F)c(-c2cncc(-c3nnco3)c2)c1 [Example 202, 3-(5-(1,3,4-oxadiazol-2-yl)pyridin-3-yl)-4-(trifluoromethoxy)phenyl cycloheptylcarbamate] | > 10 µM | 0.1 to 1 µM |
| COc1ccc(OC(=O)NC2CCCCC2)cc1-c1cncc(-c2cccs2)c1 [Example 69, 4-methoxy-3-(5-(thiophen-2-yl)pyridin-3-yl)phenyl cyclohexylcarbamate] | > 10 µM | 0.1 to 1 µM |
| O=Cc1cncc(-c2cccc(OC(=O)NC3CCCCCC3)c2)c1 [Example 20, 3-(5-formylpyridin-3-yl)phenyl cyclohepylcarbamate] | > 10 µM | 0.1 to 1 µM |
| COC(=O)c1cncc(-c2cccc(OC(=O)NC3CCCCC3)c2)c1 [Example 12, methyl 5-(3-((cyclohexylcarbamoyl)oxy)phenyl)nicotinate] | > 10 µM | 0.01 to 0.1 µM |
| CCCCCCCCNC(=O)Oc1ccc(OC)c(-c2cncc(-c3ccco3)c2)c1 [Example 53, 3-(5-(furan-2-yl)pyridin-3-yl)-4-methoxyphenyl octylcarbamate] | ~10 µM | 0.01 to 0.1 µM |
| O=C(Oc1cccc(-c2cncc(-c3nnco3)c2)c1)N1CC2CC2C1 (stereo not shown) [Example 148, 3-(5-(1,3,4-oxadiazol-2-yl)pyridin-3-yl)phenyl 3-azabicyclo[3.1.0]hexane-3-carboxylate] | > 10 µM | > 1 µM |
| CCCCCCCCNC(=O)Oc1cccc(-c2cncc(-c3ccc[nH]3)c2)c1 [Example 35, 3-(5-(1H-pyrrol-2-yl)pyridin-3-yl)phenyl octylcarbamate] | > 10 µM | 0.01 to 0.1 µM |
| CC1CCC(NC(=O)Oc2ccc(OC(F)(F)F)c(-c3cncc(-c4ncco4)c3)c2)CC1 (stereo not shown) [Example 90, 3-(5-(oxazol-2-yl)pyridin-3-yl)-4-(trifluoromethoxy)phenyl (4-methylcyclohexyl)carbamate] | > 1 µM | 0.1 to 1 µM |
| O=C(NCC1CCCCC1)Oc1cccc(-c2cncc(-c3nnco3)n2)c1 [Example 264, 3-(6-(1,3,4-oxadiazol-2-yl)pyrazin-2-yl)phenyl (cyclohexylmethyl)carbamate] | ~10 µM | 0.01 to 0.1 µM |
| O=C(NCc1ccc2ccccc2c1)Oc1cccc(-c2cncc(-c3ncn[nH]3)c2)c1 [Example 222, 3-(5-(1H-1,2,4-triazol-5-yl)pyridin-3-yl)phenyl (naphthalen-2-ylmethyl)carbamate] | ~10 µM | 0.01 to 0.1 µM |
| COc1ccc(OC(=O)NC2CCCC2)cc1-c1cncc(-c2ncco2)c1 [Example 80, 4-methoxy-3-(5-(oxazol-2-yl)pyridin-3-yl)phenyl cyclopentylcarbamate] | > 10 µM | 0.01 to 0.1 µM |
| O=C(Oc1cccc(-c2cncc(-c3nnco3)c2)c1)N1CCCCCC1 [Example 145, 3-(5-(1,3,4-oxadiazol-2-yl)pyridin-3-yl)phenyl azepane-1-carboxylate] | > 10 µM | > 1 µM |
| O=C(NC1CCCCC1)Oc1cccc(-c2cncc(-c3ccc[nH]3)c2)c1 [Example 39, 3-(5-(1H-pyrrol-2-yl)pyridin-3-yl)phenyl cyclohexylcarbamate] | > 10 µM | 0.1 to 1 µM |
| O=C(NCc1ccccc1)Oc1cccc(-c2cncc(-c3nncs3)c2)c1 [Example 209, 3-(5-(1,3,4-thiadiazol-2-yl)pyridin-3-yl)phenyl benzylcarbamate] | > 10 µM | ~0.1 µM |
| CCCCCCCCNC(=O)Oc1cccc(-c2cncc(C=O)c2)c1 [Example 16, 3-(5-formylpyridin-3-yl)phenyl octylcarbamate] | 1 to 10 µM | 0.01 to 0.1 µM |
| CCCCCNC(=O)Oc1cccc(-c2cncc(C=O)c2)c1 [Example 14, 3-(5-formylpyridin-3-yl)phenyl pentylcarbamate] | 10 to 50 µM | 0.01 to 0.1 µM |
| O=C(NC1CCCC1)Oc1cccc(-c2cncc(-c3nnco3)c2)c1 [Example 138, 3-(5-(1,3,4-oxadiazol-2-yl)pyridin-3-yl)phenyl cyclopentylcarbamate] | > 50 µM | 0.01 to 0.1 µM |
| CC1CCCCN1C(=O)Oc1cccc(-c2cncc(-c3nnco3)c2)c1 (stereo not shown) [Example 143, 3-(5-(1,3,4-oxadiazol-2-yl)pyridin-3-yl)phenyl 2-methylpiperidine-1-carboxylate] | > 10 µM | ~10 µM |
| COc1ccc(OC(=O)NC2CCCC2)cc1-c1cncc(-c2ccno2)c1 [Example 112, 3-(5-(isoxazol-5-yl)pyridin-3-yl)-4-methoxyphenyl cyclopentylcarbamate] | > 10 µM | ~0.1 µM |

| Compound | IC50 [1] | IC50 [2] |
| --- | --- | --- |
| O=C(NCCCc1ccccc1)Oc1cccc(-c2cncc(-c3nnco3)c2)c1 [Example 136, 3-(5-(1,3,4-oxadiazol-2-yl)pyridine-3-yl)phenyl (3-phenylpropyl)carbamate] | 10 to 50 µM | 0.01 to 0.1 µM |
| 3-(5-(1,3,4-oxadiazol-2-yl)134 pyridine-3-yl)phenyl heptylcarbamate [Example 129] | > 10 µM | 0.001 to 0.01 µM |
| O=Cc1cncc(-c2cccc(OC(=O)NC34CC5CC(CC(C5)C3)C4)c2)c1 [Example 21, 3-(5-formylpyridin-3-yl)phenyl ((1s,3s)-adamantan-1-yl)carbamate] | > 10 µM | > 1 µM |
| CCCCCCCCNC(=O)Oc1ccc(OC)c(-c2cncc(-c3ncn[nH]3)c2)c1 [Example 232, 3-(5-(1H-1,2,4-triazol-5-yl)pyridin-3-yl)-4-methoxyphenyl octylcarbamate] | ~10 µM | 0.01 to 0.1 µM |
| O=C(NC1CCCC1)Oc1cccc(-c2cncc(-c3nnn[nH]3)c2)c1 [Example 241, 3-(5-(1H-tetrazol-5-yl)pyridin-3-yl)phenyl cyclopentylcarbamate] | > 10 µM | > 1 µM |
| CCCCCCCCNC(=O)Oc1cccc(-c2cncc(-c3ccno3)c2)c1 [Example 105, 3-(5-(isoxazol-5-yl)pyridin-3-yl)phenyl octylcarbamate] | > 10 µM | 0.001 to 0.01 µM |
| CCCCCCCCNC(=O)Oc1cccc(-c2cncc(-c3nccs3)c2)c1 [Example 115] | ~10 µM | 0.001 to 0.01 µM |
| O=C(NC1CCCCC1)Oc1cc(F)cc(-c2cncc(-c3nnco3)c2)c1 [Example 197, 3-(5-(1,3,4-oxadiazol-2-yl)pyridin-3-yl)-5-fluorophenyl cyclohexylcarbamate] | > 10 µM | 0.1 to 1 µM |
| CCCCCNC(=O)Oc1cccc(-c2cncc(-c3ncco3)c2)c1 [Example 71, 3-(5-(oxazol-2-yl)pyridin-3-yl)phenyl pentylcarbamate] | > 10 µM | 0.01 to 1 µM |
| CCCCCCCCNC(=O)Oc1cccc(-c2cncc(-c3nnco3)n2)c1 [Example 263, 3-(6-(1,3,4-oxadiazol-2-yl)pyrazin-2-yl)phenyl octylcarbamate] | 1 to 10 µM | 0.001 to 0.01 µM |
| CSc1ccc(OC(=O)NCC2CCCCC2)cc1-c1cncc(-c2nnco2)c1 [Example 187, 3-(5-(1,3,4-oxadiazol-2-yl)pyridin-3-yl)-4-(methylthio)phenyl (cyclohexylmethyl) carbamate] | > 10 µM | 0.1 to 1 µM |
| CCCCCCCCNC(=O)Oc1cccc(-c2cncc(-c3ncn[nH]3)c2)c1 [Example 219, 3-(5-(1H-1,2,4-triazol-5-yl)pyridin-3-yl)phenyl octyl carbamate] | ~10 µM | 0.001 to 0.01 µM |
| O=C(NC1CCCC1)Oc1cccc(-c2cncc(-c3ccco3)c2)c1 [Example 50, 3-(5-(furan-2-yl)pyridin-3-yl)phenyl cyclopentylcarbamate] | ~10 µM | 0.01 to 0.1 µM |
| O=C(NCC1CCCCC1)Oc1cc(O)cc(-c2cncc(-c3nnco3)c2)c1 [Example 161, 3-(5-(1,3,4-oxadiazol-2-yl)pyridin-3-yl)-5-hydroxyphenyl (cyclohexylmethyl)carbamate] | 10 to 50 µM | 0.01 to 0.1 µM |
| O=C(NC1CCCC1)Oc1cccc(-c2cc(-c3nnco3)ccn2)c1 [Example 259, 3-(4-(1,3,4-oxadiazol-2-yl)pyridin-2-yl)phenyl cyclopentylcarbamate] | > 10 µM | 0.1 to 1 µM |
| O=C(NCc1ccccc1)Oc1ccc(O)c(-c2cncc(-c3ncn[nH]3)c2)c1 [Example 228, 3-(5-(1H-1,2,4-triazol-5-yl)pyridin-3-yl)-4-hydroxyphenyl benzylcarbamate] | > 10 µM | 0.1 to 1 µM |
| COc1ccc(OC(=O)NCc2ccccc2)cc1-c1cncc(-c2nccs2)c1 [Example 123, 4-methoxy-3-(5-(thiazol-2-yl)pyridin-3-yl)phenyl benzylcarbamate] | > 10 µM | ~1 µM |
| O=C(NCC1CCCCC1)Oc1cccc(-c2cncc(-c3cccs3)c2)c1 [Example 60, 3-(5-(thiophen-2-yl)pyridin-3-yl)phenyl (cyclohexylmethyl)carbamate] | > 10 µM | 0.01 to 0.1 µM |
| COc1ccc(OC(=O)NCC2CCCCC2)cc1-c1cncc(-c2nncs2)c1 [Example 214, 3-(5-(1,3,4-thiadiazol-2-yl)pyridin-3-yl)-4-methoxyphenyl (cyclohexylmethyl)carbamate] | > 10 µM | 0.01 to 0.1 µM |
| O=C(NCc1ccccc1)Oc1cccc(-c2cncc(-c3ccco3)c2)c1 [Example 49, 3-(5-(furan-2-yl)pyridin-3-yl)phenyl benzylcarbamate] | > 10 µM | 0.1 to 1 µM |
